US20100158980A1, “DRUG DELIVERY DEVICES FOR DELIVERY OF THERAPEUTIC AGENTS” (priority 2008, published 2010)
In brackets after ≈: the same amount, converted by molar mass. Counter-ions that a name gives are not always drawn.

Test: physchem
From the text: The active agent may be any active agent suitable to treat the desired condition. […] Examples include, but are not limited to, acetazolamide, dorzolamide HCl, timolol maleate, and ethacrynic acid sodium salt.

O=C(O)CCCCCC[C@@H]1[C@@H](CC[C@@H](O)c2cc3ccccc3s2)[C@H](O)C[C@@H]1O [AR-102 free acid, 7-((1R,2R,3R,5S)-2-((R)-3-(benzo[b]thiophen-2-yl)-3-hydroxypropyl)-3,5-dihydroxycyclopentyl)heptanoic acid]
solubility class: moderate solubility

CC(=O)Nc1nnc(S(N)(=O)=O)s1 [acetazolamide]
solubility (aqueous buffer): > 1000 µg/mL

CCNC(=O)CCC/C=C\C[C@@H]1[C@@H](/C=C/[C@@H](O)CCc2ccccc2)[C@H](O)C[C@@H]1O [bimatoprost]
solubility class: low solubility

Brc1c(NC2=NCCN2)ccc2nccnc12 [brimonidine free base]
solubility: 360 µg/mL (≈ 1230 µM)

C[C@@H]1C[C@H]2[C@@H]3CCC4=CC(=O)C=C[C@]4(C)[C@@]3(F)[C@@H](O)C[C@]2(C)[C@@]1(O)C(=O)COP(=O)(O)O [dexamethasone sodium phosphate]
solubility class: high solubility

C[C@@H]1C[C@H]2[C@@H]3CCC4=CC(=O)C=C[C@]4(C)[C@@]3(F)[C@@H](O)C[C@]2(C)[C@@]1(O)C(=O)CO [dexamethasone]
solubility class: low solubility
solubility (aqueous buffer): < 300 µg/mL

CCN[C@H]1C[C@H](C)S(=O)(=O)c2sc(S(N)(=O)=O)cc21 [dorzolamide HCl]
solubility class: high solubility
solubility (aqueous buffer): > 1000 µg/mL

C=C(CC)C(=O)c1ccc(OCC(=O)O)c(Cl)c1Cl [ethacrynic acid sodium salt]
solubility class: high solubility
solubility (aqueous buffer): > 1000 µg/mL

O=C(O)CCC/C=C\C[C@@H]1[C@@H](CC[C@@H](O)CCc2ccccc2)[C@H](O)C[C@@H]1O [latanoprost free acid]
solubility: 800 µg/mL (≈ 2050 µM)

CC[C@H](C)C(=O)O[C@H]1C[C@@H](C)C=C2C=C[C@H](C)[C@H](CC[C@@H]3C[C@@H](O)CC(=O)O3)[C@H]21 [lovastatin]
solubility (aqueous buffer): < 300 µg/mL

CC(C)(C)NC[C@H](O)COc1nsnc1N1CCOCC1 [timolol maleate]
solubility class: high solubility
solubility (aqueous buffer): > 1000 µg/mL

brimonidine tartrate
solubility (in water at pH 7.7): 600 µg/mL
